Test results taken from ChEMBL document CHEMBL3044730, “Synthesis, antimycobacterial, antiviral, antimicrobial activities, and QSAR studies of nicotinic acid benzylidene hydrazide derivatives” (Med Chem Res, 2012).

Tests used:
Staphylococcus aureus = test: Antimicrobial activity against Staphylococcus aureus after 24 hr by serial dilution method; type: functional; design: unit not given here
Human alphaherpesvirus 1 [1] = test: Antiviral activity against Human herpesvirus 1 strain KOS infected in human HEL cells assessed as inhibition of virus-induced cytopathicity by microscopy by microscopy; type: functional, organism-based; conditions: Human alphaherpesvirus 1, KOS
[2] = test system: Respiratory syncytial virus; test: Antiviral activity against Respiratory syncytial virus infected human HeLa cells assessed as inhibition of virus-induced cytopathicity by microscopy; type: functional, organism-based
Vaccinia virus = test: Antiviral activity against Vaccinia virus infected human HEL cells assessed as inhibition of virus-induced cytopathicity by microscopy; type: functional, organism-based; conditions: Orthopoxvirus vaccinia
Punta Toro virus = test: Antiviral activity against Punta Toro virus infected Vero cells assessed as inhibition of virus-induced cytopathicity; type: functional, organism-based
[3] = test system: Human immunodeficiency virus 1; test: Antiviral activity against Human immunodeficiency virus 1 IIIB infected MT4 cells assessed as inhibition of virus-induced cytopathic effect after 4 days by MTT assay; type: functional, organism-based; conditions: MT4, 96 h
[4] = test system: Human immunodeficiency virus 2; test: Antiviral activity against Human immunodeficiency virus type 2 (ISOLATE ROD) infected MT4 cells assessed as inhibition of virus-induced cytopathic effect after 4 days by MTT assay; type: functional, organism-based; conditions: Human immunodeficiency virus 2, ISOLATE ROD, MT4, 96 h
[5] = Cytotoxicity against Homo sapiens (human) HeLa cells assessed as alteration in cell morphology by microscopy; type: cell-based
[6] = test system: Vesicular stomatitis virus; test: Antiviral activity against Vesicular stomatitis virus infected human HeLa cells assessed as inhibition of virus-induced cytopathicity by microscopy; type: functional, organism-based
[7] = test system: Human herpesvirus 5 strain AD169; test: Antiviral activity against Human herpesvirus 5 strain AD169 Davis infected human HEL cells assessed as inhibition of virus-induced cytopathicity by microscopy; type: functional, organism-based; conditions: Human betaherpesvirus 5, Davis
Candida albicans [8] = test: Antimicrobial activity against Candida albicans after 2 days by serial dilution method; type: functional; design: unit not given here
Bacillus subtilis = test: Antimicrobial activity against Bacillus subtilis after 24 hr by serial dilution method; type: functional; design: unit not given here
Coxsackievirus B4 [9] = test: Antiviral activity against Human coxsackievirus B4 infected human HeLa cells assessed as inhibition of virus-induced cytopathicity by microscopy; type: functional, organism-based; conditions: Enterovirus B
Candida albicans [10] = test: Antimicrobial activity against Candida albicans after 7 days by serial dilution method; type: functional; design: unit not given here
Human respirovirus 3 = test: Antiviral activity against Human parainfluenza virus 3 infected Vero cells assessed as inhibition of virus-induced cytopathicity by microscopy; type: functional, organism-based; conditions: Human respirovirus 3, Vero
[11] = Cytotoxicity against Chlorocebus aethiops (African green monkey) Vero cells assessed as alteration in cell morphology by microscopy; type: cell-based; conditions: chlorocebus sabaeus
Coxsackievirus B4 [12] = test: Antiviral activity against Human coxsackievirus B4 infected Vero cells assessed as inhibition of virus-induced cytopathicity; type: functional, organism-based; conditions: Enterovirus B
Human alphaherpesvirus 1 [13] = test: Antiviral activity against TK(-) aciclovir-resistant Human herpesvirus 1 strain KOS infected in human HEL cells assessed as inhibition of virus-induced cytopathicity; type: functional, organism-based; conditions: Human alphaherpesvirus 1, KOS
Escherichia coli = test: Antimicrobial activity against Escherichia coli after 24 hr by serial dilution method; type: functional; design: unit not given here
[14] = test system: Mammalian orthoreovirus 1; test: Antiviral activity against Mammalian orthoreovirus 1 infected Vero cells assessed as inhibition of virus-induced cytopathicity by microscopy; type: functional, organism-based; conditions: Mammalian orthoreovirus 1, Vero
[15] = Cytotoxicity against Homo sapiens (human) HEL cells assessed as alteration in cell morphology by microscopy; type: cell-based
[16] = test system: Mycobacterium tuberculosis; test: Antimicrobial activity against Mycobacterium tuberculosis by agar dilution method; type: functional
Sindbis virus = test: Antiviral activity against Sindbis virus infected Vero cells assessed as inhibition of virus-induced cytopathicity; type: functional, organism-based
[17] = Cytotoxicity against Homo sapiens (human) MT4 cells after 4 days by MTT assay; type: cell-based
[18] = test system: Human herpesvirus 3 strain Oka vaccine; test: Antiviral activity against Human herpesvirus 3 strain Oka vaccine OKA 07-1 (Varicella zoster virus) infected in human HEL cells assessed as inhibition of virus-induced cytopathicity; type: functional, organism-based; conditions: Human alphaherpesvirus 3, OKA 07-1, HEL
Human alphaherpesvirus 2 = test: Antiviral activity against Human herpesvirus 2 strain G infected human HEL cells assessed as inhibition of virus-induced cytopathicity by microscopy; type: functional, organism-based; conditions: Human alphaherpesvirus 2, strain G

COc1ccc(/C=N/NC(=O)c2cccnc2)cc1
99 µg/mL: CC50 at 96 h [17]
> 99 µg/mL: EC50 [3] | EC50 [4]
> 100 µg/mL: EC50 (Human alphaherpesvirus 1 [1]) | EC50 [2] | EC50 (Vaccinia virus) | EC50 (Punta Toro virus) | MCC [5] | EC50 [6] | EC50 [7] | EC50 (Coxsackievirus B4 [9]) | EC50 (Human respirovirus 3) | MCC [11] | EC50 (Coxsackievirus B4 [12]) | EC50 (Human alphaherpesvirus 1 [13]) | EC50 [14] | CC50 [15] | MCC [15] | EC50 (Sindbis virus) | EC50 [18] | EC50 (Human alphaherpesvirus 2)
1.61: -logMIC (Candida albicans [10])
1.31: -logMIC (Staphylococcus aureus) | -logMIC (Candida albicans [8]) | -logMIC (Bacillus subtilis) | -logMIC (Escherichia coli)
> 25 µg/mL: MIC [16]

O=C(N/N=C/c1ccccc1[N+](=O)[O-])c1cccnc1
46 µg/mL: CC50 [15]
> 68 µg/mL: EC50 [3] | EC50 [4]
1.33: -logMIC (Staphylococcus aureus) | -logMIC (Candida albicans [8]) | -logMIC (Escherichia coli)
1.94: -logMIC (Bacillus subtilis) | -logMIC (Candida albicans [10])
68 µg/mL: CC50 at 96 h [17]
> 100 µg/mL: EC50 (Human alphaherpesvirus 1 [1]) | EC50 [2] | EC50 (Vaccinia virus) | EC50 (Punta Toro virus) | MCC [5] | EC50 [6] | EC50 [7] | EC50 (Coxsackievirus B4 [9]) | EC50 (Human respirovirus 3) | MCC [11] | EC50 (Coxsackievirus B4 [12]) | EC50 (Human alphaherpesvirus 1 [13]) | EC50 [14] | MCC [15] | EC50 (Sindbis virus) | EC50 [18] | EC50 (Human alphaherpesvirus 2)
> 25 µg/mL: MIC [16]

O=C(N/N=C/c1cccc([N+](=O)[O-])c1)c1cccnc1
> 25 µg/mL: MIC [16]
> 54 µg/mL: EC50 [3] | EC50 [4]
1.33: -logMIC (Staphylococcus aureus) | -logMIC (Candida albicans [8])
> 20 µg/mL: EC50 [7]
> 4 µg/mL: EC50 [2] | EC50 [6] | EC50 (Coxsackievirus B4 [9])
1.64: -logMIC (Bacillus subtilis) | -logMIC (Candida albicans [10])
1.94: -logMIC (Escherichia coli)
20 µg/mL: MCC [5]
> 100 µg/mL: EC50 (Human alphaherpesvirus 1 [1]) | EC50 (Vaccinia virus) | EC50 (Punta Toro virus) | EC50 (Human respirovirus 3) | EC50 (Coxsackievirus B4 [12]) | EC50 (Human alphaherpesvirus 1 [13]) | EC50 [14] | MCC [15] | EC50 (Sindbis virus) | EC50 [18] | EC50 (Human alphaherpesvirus 2)
13 µg/mL: CC50 [15]
54 µg/mL: CC50 at 96 h [17]
≥ 100 µg/mL: MCC [11]

O=C(N/N=C/c1ccc([N+](=O)[O-])cc1)c1cccnc1
≥ 0.8 µg/mL: MCC [11] | MCC [15]
> 0.8 µg/mL: EC50 (Human alphaherpesvirus 1 [1]) | EC50 (Vaccinia virus) | EC50 (Punta Toro virus) | EC50 (Human respirovirus 3) | EC50 (Coxsackievirus B4 [12]) | EC50 (Human alphaherpesvirus 1 [13]) | EC50 [14] | EC50 (Sindbis virus) | EC50 (Human alphaherpesvirus 2)
0.1 µg/mL: CC50 at 96 h [17]
> 0.1 µg/mL: EC50 [3] | EC50 [4]
1.33: -logMIC (Candida albicans [8]) | -logMIC (Bacillus subtilis) | -logMIC (Candida albicans [10])
0.8 µg/mL: MCC [5]
1.03: -logMIC (Staphylococcus aureus)
> 25 µg/mL: MIC [16]
> 0.16 µg/mL: EC50 [2] | EC50 [6] | EC50 [7] | EC50 (Coxsackievirus B4 [9]) | EC50 [18]
< 0.16 µg/mL: CC50 [15]
1.94: -logMIC (Escherichia coli)

O=C(N/N=C/c1cccc(O)c1)c1cccnc1
1.28: -logMIC (Candida albicans [8])
> 100 µg/mL: EC50 (Human alphaherpesvirus 1 [1]) | EC50 [2] | EC50 (Vaccinia virus) | EC50 (Punta Toro virus) | MCC [5] | EC50 [6] | EC50 [7] | EC50 (Coxsackievirus B4 [9]) | EC50 (Human respirovirus 3) | MCC [11] | EC50 (Coxsackievirus B4 [12]) | EC50 (Human alphaherpesvirus 1 [13]) | EC50 [14] | CC50 [15] | MCC [15] | EC50 (Sindbis virus) | EC50 [18] | EC50 (Human alphaherpesvirus 2)
1.29: -logMIC (Staphylococcus aureus) | -logMIC (Bacillus subtilis) | -logMIC (Candida albicans [10]) | -logMIC (Escherichia coli)
> 98 µg/mL: EC50 [3] | EC50 [4]
98 µg/mL: CC50 at 96 h [17]
> 25 µg/mL: MIC [16]

COc1ccc(OC)c(/C=N/NC(=O)c2cccnc2)c1
12 µg/mL: CC50 [15]
1.96: -logMIC (Candida albicans [10]) | -logMIC (Escherichia coli)
> 100 µg/mL: EC50 [2] | EC50 (Punta Toro virus) | MCC [5] | EC50 [6] | EC50 (Coxsackievirus B4 [9]) | EC50 (Human respirovirus 3) | MCC [11] | EC50 (Coxsackievirus B4 [12]) | EC50 [14] | EC50 (Sindbis virus)
1.36: -logMIC (Staphylococcus aureus) | -logMIC (Candida albicans [8]) | -logMIC (Bacillus subtilis)
100 µg/mL: MCC [15]
13 µg/mL: CC50 at 96 h [17]
> 20 µg/mL: EC50 (Human alphaherpesvirus 1 [1]) | EC50 (Vaccinia virus) | EC50 [7] | EC50 (Human alphaherpesvirus 1 [13]) | EC50 [18] | EC50 (Human alphaherpesvirus 2)
> 25 µg/mL: MIC [16]
> 13 µg/mL: EC50 [3] | EC50 [4]

COc1cc(/C=N/NC(=O)c2cccnc2)ccc1O
0.43: -logMIC (Staphylococcus aureus) | -logMIC (Bacillus subtilis) | -logMIC (Escherichia coli)
> 100 µg/mL: EC50 [2] | EC50 (Punta Toro virus) | MCC [5] | EC50 [6] | EC50 (Coxsackievirus B4 [9]) | EC50 (Human respirovirus 3) | MCC [11] | EC50 (Coxsackievirus B4 [12]) | EC50 [14] | CC50 [15] | EC50 (Sindbis virus) | EC50 [18]
> 25 µg/mL: MIC [16]
1.34: -logMIC (Candida albicans [8])
> 93 µg/mL: EC50 [3] | EC50 [4]
1.64: -logMIC (Candida albicans [10])
≥ 93 µg/mL: CC50 at 96 h [17]
100 µg/mL: MCC [15]
> 20 µg/mL: EC50 (Human alphaherpesvirus 1 [1]) | EC50 (Vaccinia virus) | EC50 [7] | EC50 (Human alphaherpesvirus 1 [13]) | EC50 (Human alphaherpesvirus 2)

CCOc1cc(/C=N/NC(=O)c2cccnc2)ccc1O
> 70 µg/mL: EC50 [18]
> 117 µg/mL: EC50 [3] | EC50 [4]
≥ 117 µg/mL: CC50 at 96 h [17]
1.06: -logMIC (Escherichia coli)
1.96: -logMIC (Candida albicans [10])
> 20 µg/mL: EC50 (Human alphaherpesvirus 1 [1]) | EC50 (Vaccinia virus) | EC50 [7] | EC50 (Human alphaherpesvirus 1 [13]) | EC50 (Human alphaherpesvirus 2)
> 100 µg/mL: EC50 [2] | EC50 (Punta Toro virus) | MCC [5] | EC50 [6] | EC50 (Coxsackievirus B4 [9]) | EC50 (Human respirovirus 3) | MCC [11] | EC50 (Coxsackievirus B4 [12]) | EC50 [14] | EC50 (Sindbis virus)
> 25 µg/mL: MIC [16]
1.36: -logMIC (Staphylococcus aureus) | -logMIC (Candida albicans [8]) | -logMIC (Bacillus subtilis)
63 µg/mL: CC50 [15]
100 µg/mL: MCC [15]
